Laboratory results: BindingDB's records for doi:10.1021/jm8005838 (Cephalon, 2008)

Molecular target: Vascular endothelial growth factor receptor 2 (Homo sapiens, UniProt P35968)
Experiment: VEGF-R2 Receptor-Linked Tyrosine Kinase Assay
Method: Compounds were evaluated for their ability to inhibit the kinase activity using an ELISA-based assay. The 96-well microtiter plate is coated with substrate solution. The reaction is initiated by adding recombinant human VEGF-R2 to reaction mixture containing inhibitor compound. After the incubation, the detection antibody, Eu-N1 antiphosphotyrosine (PT66) antibody, was added, and the fluorescence of the resulting solution was measured using the Victor Multilabel Counter.

Sequence of Vascular endothelial growth factor receptor 2 (P35968 whole entry): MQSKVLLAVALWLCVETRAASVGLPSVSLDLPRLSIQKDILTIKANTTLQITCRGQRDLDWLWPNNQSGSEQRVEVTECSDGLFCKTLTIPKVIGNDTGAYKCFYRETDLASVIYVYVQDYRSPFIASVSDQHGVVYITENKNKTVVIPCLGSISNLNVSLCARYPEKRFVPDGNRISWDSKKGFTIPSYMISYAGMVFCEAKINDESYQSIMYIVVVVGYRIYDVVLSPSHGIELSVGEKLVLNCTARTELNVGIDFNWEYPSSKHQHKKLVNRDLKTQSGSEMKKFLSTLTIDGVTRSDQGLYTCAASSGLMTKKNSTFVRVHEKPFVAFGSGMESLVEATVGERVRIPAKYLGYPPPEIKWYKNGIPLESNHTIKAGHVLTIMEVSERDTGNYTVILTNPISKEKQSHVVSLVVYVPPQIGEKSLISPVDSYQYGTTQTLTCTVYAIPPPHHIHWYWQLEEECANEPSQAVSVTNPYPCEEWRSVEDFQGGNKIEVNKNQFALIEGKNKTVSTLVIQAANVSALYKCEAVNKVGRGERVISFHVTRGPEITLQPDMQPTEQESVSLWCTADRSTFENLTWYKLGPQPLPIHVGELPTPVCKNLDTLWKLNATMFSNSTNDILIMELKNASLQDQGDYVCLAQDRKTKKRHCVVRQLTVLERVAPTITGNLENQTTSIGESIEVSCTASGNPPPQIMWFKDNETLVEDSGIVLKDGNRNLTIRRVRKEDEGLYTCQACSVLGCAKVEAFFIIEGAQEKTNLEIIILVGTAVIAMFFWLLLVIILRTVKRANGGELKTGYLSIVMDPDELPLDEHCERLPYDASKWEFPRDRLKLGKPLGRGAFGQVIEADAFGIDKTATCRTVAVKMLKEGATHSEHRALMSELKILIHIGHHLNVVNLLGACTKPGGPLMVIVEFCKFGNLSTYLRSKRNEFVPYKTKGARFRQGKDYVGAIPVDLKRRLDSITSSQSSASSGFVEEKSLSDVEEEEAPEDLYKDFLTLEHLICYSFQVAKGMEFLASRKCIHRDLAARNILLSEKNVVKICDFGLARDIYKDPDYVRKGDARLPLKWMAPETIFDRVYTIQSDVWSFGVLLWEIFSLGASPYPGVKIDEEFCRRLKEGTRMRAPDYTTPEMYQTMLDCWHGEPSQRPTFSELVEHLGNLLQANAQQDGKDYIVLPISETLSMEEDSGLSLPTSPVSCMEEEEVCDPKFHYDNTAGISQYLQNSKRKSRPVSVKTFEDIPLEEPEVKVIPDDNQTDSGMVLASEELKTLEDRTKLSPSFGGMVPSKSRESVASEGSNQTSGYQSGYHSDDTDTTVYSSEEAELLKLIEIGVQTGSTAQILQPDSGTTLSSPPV

IC50 [µM]	SMILES
3.38	CC(C)Oc1ccc2c(c1)CCc1c-2c2c(c3c4ccccc4n(CCO)c13)CNC2=O [3-(2-hydroxyethyl)-20-(propan-2-yloxy)-3,13-diazahexacyclo[14.8.0.0^{2,10}.0^{4,9}.0^{11,15}.0^{17,22}]tetracosa-1(16),2(10),4(9),5,7,11(15),17(22),18,20-nonaen-14-one]
4.72	COc1ccc2c(c1)CCc1c-2c2c(c3c4ccccc4n(CCO)c13)CNC2=O [3-(2-hydroxyethyl)-20-methoxy-3,13-diazahexacyclo[14.8.0.0^{2,10}.0^{4,9}.0^{11,15}.0^{17,22}]tetracosa-1(16),2(10),4(9),5,7,11(15),17(22),18,20-nonaen-14-one]
